In paper PMC5011342, “A high throughput drug screening assay to identify compounds that promote oligodendrocyte differentiation using acutely dissociated and purified oligodendrocyte precursor cells” (BMC Research Notes, 2016):
Like-named read-outs stand apart in the source and are kept apart here.

Columns and labels:
[1] = tested on: acutely dissociated and purified rat OPCs; test: Acute OL differentiation assay (MBP expression/cell, immunofluorescent image quantification); assay type: cell-based; conditions: Rattus norvegicus, sheet "All OLga data"
How it was run: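 This acute differentiation assay used purified rat OPCs from postnatal day 6–7 pups, seeded into PDL/laminin-coated 96-well plates in differentiation medium lacking PDGF and FGF. Compounds were applied in quadruplicate after a 1–2 h preincubation at 37 °C, 10 % CO2, with 0.1 % DMSO negative and 40 ng/ml T3 positive controls in eight wells. After fixation on DIV4, anti-MBP immunofluorescence images yielded MBP expression/cell.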

expanded OPCs = test: cells; conditions: for 0.1 µM (% DMSO) / 1 µM (% DMSO) / 10 µM (% DMSO): alamarBlue viability of expanded OPCs, relative to DMSO control; for 0.1 µM (% DMSO): compound at 0.1 µM; for 1 µM (% DMSO): compound at 1 µM; for 10 µM (% DMSO): compound at 10 µM; for viability at 0.1 µM / viability at 1 µM / viability at 10 µM: Rattus norvegicus, 72 h
How it was run: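 Toxicity screen: compounds added at 0.1, 1 and 10 µM to PDGF-AA-expanded OPCs in 96-well plates, 3-day incubation at 37 °C, 10% CO2, then alamarBlue 1:10 for 4 h with fluorescence readout. Results set screening doses of 10/2, 2/0.4 or 0.4/0.08 µM.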

[2] = test compound at 2 uM, NCC library screen, relative to quetiapine, read-out: 2 uM (% Quet)
[3] = test compound at 10 uM, NCC library screen, relative to quetiapine, read-out: 10 uM (% Quet)
[4] = read-out: 0.1 µM (% DMSO), alamarBlue viability, NCC library compound at 0.1 µM, sheet "All Tox data"
[5] = read-out: 1 µM (% DMSO), alamarBlue viability, NCC library compound at 1 µM, sheet "All Tox data"
[6] = read-out: 10 µM (% DMSO), alamarBlue viability, NCC library compound at 10 µM, sheet "All Tox data"
[7] = 2 uM test compound, relative to quetiapine, read-out: OL differentiation, 2 uM (% Quet)
[8] = 10 uM test compound, relative to quetiapine, read-out: OL differentiation, 10 uM (% Quet)
[9] = read-out: 0.1 µM (% DMSO), alamarBlue viability of expanded OPCs, compound at 0.1 µM, sheet All Tox data
[10] = read-out: 1 µM (% DMSO), alamarBlue viability of expanded OPCs, compound at 1 µM, sheet All Tox data
[11] = read-out: 10 µM (% DMSO), alamarBlue viability of expanded OPCs, compound at 10 µM, sheet All Tox data

Question: Which results are given for `CC(=O)S[C@@H]1CC2=CC(=O)CC[C@]2(C)[C@H]2CC[C@@]3(C)[C@@H](CC[C@@]34CCC(=O)O4)[C@H]12` [Spironolactone]?
Answer: activation at 2 µM [1, 2]: -13%; activation at 10 µM [1, 3]: -65.1%; 0.1 µM (% DMSO) (expanded OPCs): 88.4 % DMSO; 1 µM (% DMSO) (expanded OPCs): 80.5 % DMSO; 10 µM (% DMSO) (expanded OPCs): 61.8 % DMSO

Question: Which activation at 0.4 µM ([1]; test compound at 0.4 uM, NCC library screen, relative to quetiapine, read-out: 0.4 uM (% Quet)) does the source give for `C[C@]12Cc3c[nH]nc3C[C@@H]1CC[C@@H]1[C@@H]2CC[C@@]2(C)[C@H]1CC[C@]2(C)O` [Stanozolol] here?
Answer: 6.5%

Question: And the activation at 2 µM [1, 2]?
Answer: 42.2%

Question: What about the viability at 0.1 µM (expanded OPCs; [4]) of the same compound?
Answer: 91.1%

Question: What about the viability at 1 µM (expanded OPCs; [5]) of the same compound?
Answer: 92.6%

Question: What about the viability at 10 µM (expanded OPCs; [6]) of the same compound?
Answer: 61.7%

Question: Which results are given for `Cc1cn([C@H]2C=C[C@@H](CO)O2)c(=O)[nH]c1=O` [Stavudine]?
Answer: activation at 2 µM [1, 7]: -25.8%; activation at 10 µM [1, 8]: -25%; activation at 2 µM ([1]; test compound at 2 uM, MBP expression relative to quetiapine, NCC library screen, read-out: 2 uM (% Quet)): -21.6%; activation at 10 µM ([1]; test compound at 10 uM, MBP expression relative to quetiapine, NCC library screen, read-out: 10 uM (% Quet)): -35.1%; viability at 0.1 µM (expanded OPCs; [9]): 110%; viability at 1 µM (expanded OPCs; [10]): 91.5%; viability at 10 µM (expanded OPCs; [11]): 107%; 0.1 µM (% DMSO) (expanded OPCs): 90.1 % DMSO; 1 µM (% DMSO) (expanded OPCs): 97.1 % DMSO; 10 µM (% DMSO) (expanded OPCs): 101.2 % DMSO

Question: For `CC(C)(C)C(O)/C=C/c1ccc2c(c1)OCO2` (stereo not shown) [Stiripentol], which activation at 2 µM [1, 2] is on record?
Answer: -12%

Question: And the activation at 10 µM [1, 3]?
Answer: -14.2%

Question: What about the viability at 0.1 µM (expanded OPCs; [4]) of the same compound?
Answer: 85.4%

Question: What about the viability at 1 µM (expanded OPCs; [5]) of the same compound?
Answer: 89.5%

Question: What about the viability at 10 µM (expanded OPCs; [6]) of the same compound?
Answer: 83.7%

Question: Which activation at 2 µM [1, 2] does the source give for `CC(=O)NS(=O)(=O)c1ccc(N)cc1` [Sulfacetamide] here?
Answer: 11.2%

Question: And the activation at 10 µM [1, 3]?
Answer: 0.16%

Question: And the viability at 0.1 µM (expanded OPCs; [4])?
Answer: 90.1%

Question: What about the viability at 1 µM (expanded OPCs; [5]) of the same compound?
Answer: 91.6%

Question: And the viability at 10 µM (expanded OPCs; [6])?
Answer: 89.7%

Question: What does the source list for `O=C(O)c1cc(/N=N/c2ccc(S(=O)(=O)Nc3ccccn3)cc2)ccc1O` [Sulfasalazine]?
Answer: activation at 2 µM [1, 7]: 15.1%; activation at 10 µM [1, 8]: -0.6%; viability at 0.1 µM (expanded OPCs; [9]): 89%; viability at 1 µM (expanded OPCs; [10]): 89.8%; viability at 10 µM (expanded OPCs; [11]): 94.9%

Question: `O=C1C(CC[S+]([O-])c2ccccc2)C(=O)N(c2ccccc2)N1c1ccccc1` (stereo not shown) [Sulfinpyrazone] was tested. Which activation at 2 µM [1, 2] did it give?
Answer: -3.8%

Question: What about the activation at 10 µM [1, 3] of the same compound?
Answer: -6.8%

Question: And the viability at 0.1 µM (expanded OPCs; [4])?
Answer: 88.8%

Question: What about the viability at 1 µM (expanded OPCs; [5]) of the same compound?
Answer: 92.9%

Question: What about the viability at 10 µM (expanded OPCs; [6]) of the same compound?
Answer: 88.2%

Question: How did the activation at 2 µM [1, 2] turn out when `Cc1noc(NS(=O)(=O)c2ccc(N)cc2)c1C` [Sulfisoxazole] was run?
Answer: -3.5%

Question: What about the activation at 10 µM [1, 3] of the same compound?
Answer: 7.6%

Question: What about the viability at 0.1 µM (expanded OPCs; [4]) of the same compound?
Answer: 93.5%

Question: And the viability at 1 µM (expanded OPCs; [5])?
Answer: 99.1%

Question: What about the viability at 10 µM (expanded OPCs; [6]) of the same compound?
Answer: 103%

Question: For `CC1=C(CC(=O)O)c2cc(F)ccc2/C1=C\c1ccc([S+](C)[O-])cc1` (stereo not shown) [Sulindac], which activation at 2 µM [1, 2] is on record?
Answer: 0.6%

Question: What about the activation at 10 µM [1, 3] of the same compound?
Answer: -11.2%

Question: What about the “0.1 µM (% DMSO)” value (expanded OPCs) of the same compound?
Answer: 90.8 % DMSO

Question: And the “1 µM (% DMSO)” value (expanded OPCs)?
Answer: 94.4 % DMSO

Question: And the “10 µM (% DMSO)” value (expanded OPCs)?
Answer: 90.3 % DMSO

Question: `CCN1CCCC1CNC(=O)c1cc(S(N)(=O)=O)ccc1OC` (stereo not shown) [Sulpiride] was tested. Which activation at 2 µM [1, 7] did it give?
Answer: -9.7%

Question: And the activation at 10 µM [1, 8]?
Answer: 6%

Question: And the viability at 0.1 µM (expanded OPCs; [9])?
Answer: 105%

Question: And the viability at 1 µM (expanded OPCs; [10])?
Answer: 116%

Question: What about the viability at 10 µM (expanded OPCs; [11]) of the same compound?
Answer: 115%

Question: With `CCN1CCCC1CNC(=O)c1cc(S(=O)(=O)CC)ccc1OC` (stereo not shown) [Sultopride] as the compound, how does the activation at 2 µM [1, 7] read?
Answer: 7.7%

Question: What about the activation at 10 µM [1, 8] of the same compound?
Answer: 0%

Question: What about the viability at 0.1 µM (expanded OPCs; [9]) of the same compound?
Answer: 93.7%

Question: And the viability at 1 µM (expanded OPCs; [10])?
Answer: 89.8%

Question: What about the viability at 10 µM (expanded OPCs; [11]) of the same compound?
Answer: 96.2%

Question: Which results are given for `CNS(=O)(=O)Cc1ccc2[nH]cc(CCN(C)C)c2c1` [Sumatriptan]?
Answer: activation at 2 µM [1, 7]: 69.1%; activation at 10 µM [1, 8]: 84.6%; viability at 0.1 µM (expanded OPCs; [4]): 95.1%; viability at 1 µM (expanded OPCs; [5]): 98.2%; viability at 10 µM (expanded OPCs; [6]): 92.1%

Question: What does the source list for `CNCC(O)c1ccc(O)cc1` (stereo not shown) [Synephrine]?
Answer: activation at 2 µM [1, 2]: -7.3%; activation at 10 µM [1, 3]: 2.8%; viability at 0.1 µM (expanded OPCs; [4]): 85.8%; viability at 1 µM (expanded OPCs; [5]): 94.3%; viability at 10 µM (expanded OPCs; [6]): 93.4%
